Test system: female Sprague-Dawley mature and young adult rats
Test: Ex vivo peripheral quantitative computed tomography (pQCT) of right femur (metaphysis, diaphysis, length)
Type: in vivo, rat
Conditions: for pQCT femur (diaphysis) CSMI / pQCT femur (diaphysis) Cortical Area / pQCT femur (diaphysis) Cortical BMC / pQCT femur (diaphysis) Cortical BMD / pQCT femur (diaphysis) Cortical Thickness / pQCT femur (diaphysis) Endosteal Circumference / pQCT femur (diaphysis) Periosteal Circumference / pQCT femur (diaphysis) Total Area / pQCT femur (diaphysis) Total BMC / pQCT femur (diaphysis) Total BMD / pQCT femur Length / pQCT femur metaphysis C/SC (Cortical/Subcortical) BMC / pQCT femur metaphysis C/SC (Cortical/Subcortical) BMD / pQCT femur metaphysis Total Area / pQCT femur metaphysis Total BMC / pQCT femur metaphysis Total BMD / pQCT femur metaphysis Trabecular BMC / pQCT femur metaphysis Trabecular BMD: mean
Description: The following were evaluated: clinical signs (at least weekly), body weight (weekly), food consumption (weekly), hormones (Days 13 and 27), serum and urinary biochemical markers of bone turnover (Days 13 and 27), serum chemistry (at necropsy), bone densitometry by dual energy X-ray absorptiometry (DXA) and peripheral quantitative computed tomography (pQCT) (Week 2 and 4, as well as ex vivo), macroscopic observations at necropsy, organ weights, histopathology, biomechanical strength testing and femoral length measurements.
3.2 Ex Vivo Peripheral Quantitative Computed Tomography (pQCT)
Peripheral QCT scans were performed ex vivo using an XCT Research SA or SA+ bone scanner with software version 5.50D. Scans were obtained for the right femur, L3 and L4 lumbar vertebra for all animals euthanized at the end of the treatment period as well as two found dead animals. These two animals were scanned twice due to technical oversight, however only the first scans obtained were reported and the second scans were kept with the study file, this had no impact on the study as both scans were considered equivalent.
For the femurs, the scanned site was at the expected 3-point bending fracture site (diaphysis). This site was analyzed using Cortmode 2 for cortical bone measurements only (Table 5). An additional slice was obtained in the metaphysis. The metaphysis scan was not performed for the femur of three animals due to condyles detachment from the femur during trimming.
The femoral length was measured as part of the ex vivo pQCT scanning procedures and was reported for the right femur of all animals with the exception of 3 animas due to damaged femoral condyles.
All analyses were performed using the LOOP option of the analysis software. All other data generated as a result of the LOOP option were retained with the raw data but not reported. The most appropriate analysis mode for the femur and the lumbar vertebrae was used and documented in the raw data and the analysis details are presented in Table 6. All scan analysis data was retained and re-analyses documented.

## COc1ccc(Cc2c(OC3OC(CO)C(F)C(O)C3O)n[nH]c2C(F)(F)F)cc1 (stereo not drawn) [Example 5 of formula II]
Mature Adults, 10 mg/kg/day
  pQCT femur (diaphysis) CSMI, percent difference from Vehicle Control: 5.7%
  pQCT femur (diaphysis) Cortical Area, percent difference from Vehicle Control: 2.3%
  pQCT femur (diaphysis) Cortical BMC, percent difference from Vehicle Control: 2.7%
  pQCT femur (diaphysis) Cortical BMD, percent difference from Vehicle Control: 0.5%
  pQCT femur (diaphysis) Cortical Thickness, percent difference from Vehicle Control: 0.6%
  pQCT femur (diaphysis) Endosteal Circumference, percent difference from Vehicle Control: 2.3%
  pQCT femur (diaphysis) Periosteal Circumference, percent difference from Vehicle Control: 1.0%
  pQCT femur (diaphysis) Total Area, percent difference from Vehicle Control: 3.1%
  pQCT femur (diaphysis) Total BMC, percent difference from Vehicle Control: 3.0%
  pQCT femur (diaphysis) Total BMD, percent difference from Vehicle Control: 0.1%
  pQCT femur Length, percent difference from Vehicle Control: −0.4%
  pQCT femur metaphysis C/SC BMC, percent difference from Vehicle Control: 6.2%
  pQCT femur metaphysis C/SC BMD, percent difference from Vehicle Control: 2.0%
  pQCT femur metaphysis Total Area, percent difference from Vehicle Control: 4.4%
  pQCT femur metaphysis Total BMC, percent difference from Vehicle Control: 7.8%
  pQCT femur metaphysis Total BMD, percent difference from Vehicle Control: 3.5%
  pQCT femur metaphysis Trabecular BMC, percent difference from Vehicle Control: 14.7%
  pQCT femur metaphysis Trabecular BMD, percent difference from Vehicle Control: 9.9%
  pQCT femur (diaphysis) CSMI: 5.0 mm^4
  pQCT femur (diaphysis) Cortical Area: 6.5 mm^2
  pQCT femur (diaphysis) Cortical BMC: 8.5 mg/mm
  pQCT femur (diaphysis) Cortical BMD: 1312.6 mg/cm^3
  pQCT femur (diaphysis) Cortical Thickness: 0.76 mm
  pQCT femur (diaphysis) Endosteal Circumference: 6.2 mm
  pQCT femur (diaphysis) Periosteal Circumference: 10.8 mm
  pQCT femur (diaphysis) Total Area: 9.6 mm^2
  pQCT femur (diaphysis) Total BMC: 9.1 mg/mm
  pQCT femur (diaphysis) Total BMD: 955.6 mg/cm^3
  pQCT femur Length: 37.0 mm
  pQCT femur metaphysis C/SC (Cortical/Subcortical) BMC: 10.1 mg/mm
  pQCT femur metaphysis C/SC (Cortical/Subcortical) BMD: 1054.0 mg/cm^3
  pQCT femur metaphysis Total Area: 16.0 mm^2
  pQCT femur metaphysis Total BMC: 12.6 mg/mm
  pQCT femur metaphysis Total BMD: 791.1 mg/cm^3
  pQCT femur metaphysis Trabecular BMC: 2.5 mg/mm
  pQCT femur metaphysis Trabecular BMD: 396.9 mg/cm^3
Mature Adults, 50 mg/kg/day
  pQCT femur (diaphysis) CSMI, percent difference from Vehicle Control: −3.0%
  pQCT femur (diaphysis) Cortical Area, percent difference from Vehicle Control: 0.2%
  pQCT femur (diaphysis) Cortical BMC, percent difference from Vehicle Control: 1.2%
  pQCT femur (diaphysis) Cortical BMD, percent difference from Vehicle Control: 1.0%
  pQCT femur (diaphysis) Cortical Thickness, percent difference from Vehicle Control: 3.5%
  pQCT femur (diaphysis) Endosteal Circumference, percent difference from Vehicle Control: −5.6%
  pQCT femur (diaphysis) Periosteal Circumference, percent difference from Vehicle Control: −2.1%
  pQCT femur (diaphysis) Total Area, percent difference from Vehicle Control: −3.4%
  pQCT femur (diaphysis) Total BMC, percent difference from Vehicle Control: 0.0%
  pQCT femur (diaphysis) Total BMD, percent difference from Vehicle Control: 3.5%
  pQCT femur Length, percent difference from Vehicle Control: −0.4%
  pQCT femur metaphysis C/SC BMC, percent difference from Vehicle Control: 4.0%
  pQCT femur metaphysis C/SC BMD, percent difference from Vehicle Control: 7.0%
  pQCT femur metaphysis Total Area, percent difference from Vehicle Control: −2.7%
  pQCT femur metaphysis Total BMC, percent difference from Vehicle Control: 5.1%
  pQCT femur metaphysis Total BMD, percent difference from Vehicle Control: 8.0%
  pQCT femur metaphysis Trabecular BMC, percent difference from Vehicle Control: 9.7%
  pQCT femur metaphysis Trabecular BMD, percent difference from Vehicle Control: 12.3%
  pQCT femur (diaphysis) CSMI: 4.6 mm^4
  pQCT femur (diaphysis) Cortical Area: 6.4 mm^2
  pQCT femur (diaphysis) Cortical BMC: 8.4 mg/mm
  pQCT femur (diaphysis) Cortical BMD: 1319.4 mg/cm^3
  pQCT femur (diaphysis) Cortical Thickness: 0.78 mm
  pQCT femur (diaphysis) Endosteal Circumference: 5.7 mm
  pQCT femur (diaphysis) Periosteal Circumference: 10.4 mm
  pQCT femur (diaphysis) Total Area: 9.0 mm^2
  pQCT femur (diaphysis) Total BMC: 8.8 mg/mm
  pQCT femur (diaphysis) Total BMD: 988.0 mg/cm^3
  pQCT femur Length: 37.0 mm
  pQCT femur metaphysis C/SC (Cortical/Subcortical) BMC: 9.9 mg/mm
  pQCT femur metaphysis C/SC (Cortical/Subcortical) BMD: 1105.5 mg/cm^3
  pQCT femur metaphysis Total Area: 14.9 mm^2
  pQCT femur metaphysis Total BMC: 12.3 mg/mm
  pQCT femur metaphysis Total BMD: 825.3 mg/cm^3
  pQCT femur metaphysis Trabecular BMC: 2.4 mg/mm
  pQCT femur metaphysis Trabecular BMD: 405.3 mg/cm^3
Young Adults, 10 mg/kg/day
  pQCT femur (diaphysis) CSMI, percent difference from Vehicle Control: −1.3%
  pQCT femur (diaphysis) Cortical Area, percent difference from Vehicle Control: −0.4%
  pQCT femur (diaphysis) Cortical BMC, percent difference from Vehicle Control: −0.8%
  pQCT femur (diaphysis) Cortical BMD, percent difference from Vehicle Control: −0.4%
  pQCT femur (diaphysis) Cortical Thickness, percent difference from Vehicle Control: 0.15%
  pQCT femur (diaphysis) Endosteal Circumference, percent difference from Vehicle Control: −0.7%
  pQCT femur (diaphysis) Periosteal Circumference, percent difference from Vehicle Control: −1.2%
  pQCT femur (diaphysis) Total Area, percent difference from Vehicle Control: −0.9%
  pQCT femur (diaphysis) Total BMC, percent difference from Vehicle Control: 0.2%
  pQCT femur (diaphysis) Total BMD, percent difference from Vehicle Control: 1.1%
  pQCT femur Length, percent difference from Vehicle Control: −3.8%
  pQCT femur metaphysis C/SC BMC, percent difference from Vehicle Control: 10.7%
  pQCT femur metaphysis C/SC BMD, percent difference from Vehicle Control: 6.8%
  pQCT femur metaphysis Total Area, percent difference from Vehicle Control: 3.7%
  pQCT femur metaphysis Total BMC, percent difference from Vehicle Control: 16.7%
  pQCT femur metaphysis Total BMD, percent difference from Vehicle Control: 12.6%
  pQCT femur metaphysis Trabecular BMC, percent difference from Vehicle Control: 41.4%
  pQCT femur metaphysis Trabecular BMD, percent difference from Vehicle Control: 36.4%
  pQCT femur (diaphysis) CSMI: 3.8 mm^4
  pQCT femur (diaphysis) Cortical Area: 4.7 mm^2
  pQCT femur (diaphysis) Cortical BMC: 5.6 mg/mm
  pQCT femur (diaphysis) Cortical BMD: 1182.8 mg/cm^3
  pQCT femur (diaphysis) Cortical Thickness: 0.54 mm
  pQCT femur (diaphysis) Endosteal Circumference: 6.9 mm
  pQCT femur (diaphysis) Periosteal Circumference: 10.2 mm
  pQCT femur (diaphysis) Total Area: 8.6 mm^2
  pQCT femur (diaphysis) Total BMC: 6.2 mg/mm
  pQCT femur (diaphysis) Total BMD: 721.8 mg/cm^3
  pQCT femur Length: 31.9 mm
  pQCT femur metaphysis C/SC (Cortical/Subcortical) BMC: 7.9 mg/mm
  pQCT femur metaphysis C/SC (Cortical/Subcortical) BMD: 877.1 mg/cm^3
  pQCT femur metaphysis Total Area: 15.0 mm^2
  pQCT femur metaphysis Total BMC: 10.3 mg/mm
  pQCT femur metaphysis Total BMD: 690.2 mg/cm^3
  pQCT femur metaphysis Trabecular BMC: 2.5 mg/mm
  pQCT femur metaphysis Trabecular BMD: 410.7 mg/cm^3
Young Adults, 50 mg/kg/day
  pQCT femur (diaphysis) CSMI, percent difference from Vehicle Control: 0.6%
  pQCT femur (diaphysis) Cortical Area, percent difference from Vehicle Control: −0.6%
  pQCT femur (diaphysis) Cortical BMC, percent difference from Vehicle Control: −0.7%
  pQCT femur (diaphysis) Cortical BMD, percent difference from Vehicle Control: −0.1%
  pQCT femur (diaphysis) Cortical Thickness, percent difference from Vehicle Control: −0.01%
  pQCT femur (diaphysis) Endosteal Circumference, percent difference from Vehicle Control: −0.7%
  pQCT femur (diaphysis) Periosteal Circumference, percent difference from Vehicle Control: −0.3%
  pQCT femur (diaphysis) Total Area, percent difference from Vehicle Control: −0.7%
  pQCT femur (diaphysis) Total BMC, percent difference from Vehicle Control: 0.0%
  pQCT femur (diaphysis) Total BMD, percent difference from Vehicle Control: 0.9%
  pQCT femur Length, percent difference from Vehicle Control: −4.9%
  pQCT femur metaphysis C/SC BMC, percent difference from Vehicle Control: 18.4%
  pQCT femur metaphysis C/SC BMD, percent difference from Vehicle Control: 13.6%
  pQCT femur metaphysis Total Area, percent difference from Vehicle Control: 4.3%
  pQCT femur metaphysis Total BMC, percent difference from Vehicle Control: 33.0%
  pQCT femur metaphysis Total BMD, percent difference from Vehicle Control: 27.6%
  pQCT femur metaphysis Trabecular BMC, percent difference from Vehicle Control: 92.0%
  pQCT femur metaphysis Trabecular BMD, percent difference from Vehicle Control: 84.7%
  pQCT femur (diaphysis) CSMI: 3.9 mm^4
  pQCT femur (diaphysis) Cortical Area: 4.7 mm^2
  pQCT femur (diaphysis) Cortical BMC: 5.6 mg/mm
  pQCT femur (diaphysis) Cortical BMD: 1186.1 mg/cm^3
  pQCT femur (diaphysis) Cortical Thickness: 0.54 mm
  pQCT femur (diaphysis) Endosteal Circumference: 7.0 mm
  pQCT femur (diaphysis) Periosteal Circumference: 10.2 mm
  pQCT femur (diaphysis) Total Area: 8.6 mm^2
  pQCT femur (diaphysis) Total BMC: 6.2 mg/mm
  pQCT femur (diaphysis) Total BMD: 720.6 mg/cm^3
  pQCT femur Length: 31.6 mm
  pQCT femur metaphysis C/SC (Cortical/Subcortical) BMC: 8.4 mg/mm
  pQCT femur metaphysis C/SC (Cortical/Subcortical) BMD: 932.6 mg/cm^3
  pQCT femur metaphysis Total Area: 15.1 mm^2
  pQCT femur metaphysis Total BMC: 11.8 mg/mm
  pQCT femur metaphysis Total BMD: 782.0 mg/cm^3
  pQCT femur metaphysis Trabecular BMC: 3.4 mg/mm
  pQCT femur metaphysis Trabecular BMD: 556.0 mg/cm^3

— patent US20120270819A1, “USE OF COMPOUNDS WITH SGLT-1/SGLT-2 INHIBITOR ACTIVITY FOR PRODUCING MEDICAMENTS FOR TREATMENT OF BONE DISEASE” (SANOFI, priority 2009, published 2012)
